Source: patent US8314215B2, “Mild chemically cleavable linker system” (The Board of Trustees of the Leland Stanford Junior …, priority 2006, dated 2012)

What was measured:
Test in all cases: LC/MS/MS identification of proteins from mouse liver extracts labeled with MTS-I-49
Assay type in all cases: biochemical
[1] = molecular target: T1, carbamoyl-phosphate synthase 1 (Mus musculus, UniProt Q8C196)
T1 construct: from tissue; host or cells: mouse liver extract
T1 sequence (Q8C196 39-1500): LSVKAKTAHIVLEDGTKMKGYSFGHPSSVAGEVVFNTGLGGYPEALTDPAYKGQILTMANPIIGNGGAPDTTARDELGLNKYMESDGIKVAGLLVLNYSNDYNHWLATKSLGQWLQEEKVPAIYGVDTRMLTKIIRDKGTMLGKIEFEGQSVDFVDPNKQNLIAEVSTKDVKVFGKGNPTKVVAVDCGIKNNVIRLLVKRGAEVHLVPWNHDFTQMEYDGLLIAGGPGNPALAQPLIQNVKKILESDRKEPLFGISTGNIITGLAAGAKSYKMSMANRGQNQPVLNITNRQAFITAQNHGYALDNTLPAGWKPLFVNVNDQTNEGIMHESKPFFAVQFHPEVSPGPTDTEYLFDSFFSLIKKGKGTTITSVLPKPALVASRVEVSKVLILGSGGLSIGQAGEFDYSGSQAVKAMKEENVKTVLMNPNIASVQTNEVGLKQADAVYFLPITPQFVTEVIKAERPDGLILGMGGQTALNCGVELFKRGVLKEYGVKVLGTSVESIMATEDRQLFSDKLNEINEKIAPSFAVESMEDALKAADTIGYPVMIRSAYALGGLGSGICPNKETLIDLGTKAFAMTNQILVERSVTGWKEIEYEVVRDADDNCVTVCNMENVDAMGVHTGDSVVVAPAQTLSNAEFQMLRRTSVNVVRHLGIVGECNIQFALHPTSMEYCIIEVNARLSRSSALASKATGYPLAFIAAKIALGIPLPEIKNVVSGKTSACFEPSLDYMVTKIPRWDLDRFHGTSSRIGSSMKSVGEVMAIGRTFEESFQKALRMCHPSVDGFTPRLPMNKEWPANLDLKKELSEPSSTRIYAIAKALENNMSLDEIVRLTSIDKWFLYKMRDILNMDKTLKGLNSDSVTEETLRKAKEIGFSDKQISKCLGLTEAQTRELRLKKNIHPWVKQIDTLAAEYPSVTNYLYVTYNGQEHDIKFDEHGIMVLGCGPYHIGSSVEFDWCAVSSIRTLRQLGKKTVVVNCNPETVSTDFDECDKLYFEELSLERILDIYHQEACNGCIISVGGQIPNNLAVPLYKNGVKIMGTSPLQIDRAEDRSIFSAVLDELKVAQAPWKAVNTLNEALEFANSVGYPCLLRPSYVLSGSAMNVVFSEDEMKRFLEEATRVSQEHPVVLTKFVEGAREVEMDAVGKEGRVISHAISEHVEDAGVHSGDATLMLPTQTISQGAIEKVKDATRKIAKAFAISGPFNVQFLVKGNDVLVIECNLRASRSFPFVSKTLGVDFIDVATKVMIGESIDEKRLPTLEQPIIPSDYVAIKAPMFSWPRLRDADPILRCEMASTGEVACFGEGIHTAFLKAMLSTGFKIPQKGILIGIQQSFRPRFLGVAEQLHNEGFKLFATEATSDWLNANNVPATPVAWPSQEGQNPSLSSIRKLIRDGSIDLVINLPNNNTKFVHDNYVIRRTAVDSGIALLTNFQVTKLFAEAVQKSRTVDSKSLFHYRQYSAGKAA
Source text: (§1) (1991) Irreversible inhibition of serine proteases by peptide derivatives of (alpha-aminoalkyl)phosphonate diphenyl esters. Biochemistry 30, 485-493). However, it has not been used for any proteomic applications. We used MTS-I-49 to label mouse liver extracts and analyze the labeled sample by both SDS-PAGE (FIG. 5B) and by direct chemical cleavage or on bead digestion.
(§2) After enrichment on immobilized avidin, each of the three labeled proteomes (FIG. 5b) was divided into two aliquots. One was prepared for LC-MS/MS analysis by “on bead” digestion, while the other was chemically eluted and digested “in solution.” Proteins identified in each tissue lysate are listed with their accession number and theoretical molecular weight (MW). To compare both approaches, the number of identified peptides and percentage of amino acid sequence coverage is listed for each protein.
(§3) Proteins in the above Table were identified by LC/MS/MS analysis of on bead digested or chemically eluted proteins from mouse liver extracts labeled with MTS-I-49. […] BLAST database searching identified it as liver carboxylesterase 4. A number of additional endogenously biotinylated proteins were identified in the on-bead digested sample.

[2] = test system: fructose-bisphosphate aldolase
Source text: as §1, §2, §3

[3] = molecular target: T2, glycine N-methyltransferase (Mus musculus, UniProt Q9QXF8)
T2 construct: from tissue; host or cells: mouse liver extract
T2 sequence (Q9QXF8 1-293): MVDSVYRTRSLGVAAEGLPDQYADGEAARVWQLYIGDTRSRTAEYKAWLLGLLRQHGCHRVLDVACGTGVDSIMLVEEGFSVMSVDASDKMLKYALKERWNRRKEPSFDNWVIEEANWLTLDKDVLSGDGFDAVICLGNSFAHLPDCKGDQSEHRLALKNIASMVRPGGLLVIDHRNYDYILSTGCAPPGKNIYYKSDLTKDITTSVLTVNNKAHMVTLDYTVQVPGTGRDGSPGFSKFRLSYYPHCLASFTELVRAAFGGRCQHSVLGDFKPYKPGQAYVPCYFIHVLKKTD
Source text: as §1, §2, §3

hemoglobin alpha 1 = molecular target: T3, hemoglobin alpha 1 (Mus musculus, UniProt P01942)
T3 construct: from tissue; host or cells: mouse liver extract
Source text: as §1, §2, §3

[4] = test system: acetyl-Coenzyme A dehydrogenase
Source text: as §1, §2, §3

carbonmonoxy hemoglobin = test system: carbonmonoxy hemoglobin
Source text: as §1, §2, §3

albumin 1 = molecular target: T4, albumin 1 (Mus musculus, UniProt P07724)
T4 construct: from tissue; host or cells: mouse liver extract
Source text: as §1, §2, §3

[5] = chemically eluted, digested in solution

T3 sequence (P01942 2-142 limits assumed): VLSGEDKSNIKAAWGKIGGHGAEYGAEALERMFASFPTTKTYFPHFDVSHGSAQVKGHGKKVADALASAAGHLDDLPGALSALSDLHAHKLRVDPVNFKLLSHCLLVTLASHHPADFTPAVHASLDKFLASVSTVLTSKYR
T3 sequence (P02088 2-147 partner limits assumed): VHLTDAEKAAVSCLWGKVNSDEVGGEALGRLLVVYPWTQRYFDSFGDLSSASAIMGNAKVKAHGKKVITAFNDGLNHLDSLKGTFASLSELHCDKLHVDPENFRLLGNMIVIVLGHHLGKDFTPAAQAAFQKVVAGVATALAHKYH
T4 sequence (P07724 25-608): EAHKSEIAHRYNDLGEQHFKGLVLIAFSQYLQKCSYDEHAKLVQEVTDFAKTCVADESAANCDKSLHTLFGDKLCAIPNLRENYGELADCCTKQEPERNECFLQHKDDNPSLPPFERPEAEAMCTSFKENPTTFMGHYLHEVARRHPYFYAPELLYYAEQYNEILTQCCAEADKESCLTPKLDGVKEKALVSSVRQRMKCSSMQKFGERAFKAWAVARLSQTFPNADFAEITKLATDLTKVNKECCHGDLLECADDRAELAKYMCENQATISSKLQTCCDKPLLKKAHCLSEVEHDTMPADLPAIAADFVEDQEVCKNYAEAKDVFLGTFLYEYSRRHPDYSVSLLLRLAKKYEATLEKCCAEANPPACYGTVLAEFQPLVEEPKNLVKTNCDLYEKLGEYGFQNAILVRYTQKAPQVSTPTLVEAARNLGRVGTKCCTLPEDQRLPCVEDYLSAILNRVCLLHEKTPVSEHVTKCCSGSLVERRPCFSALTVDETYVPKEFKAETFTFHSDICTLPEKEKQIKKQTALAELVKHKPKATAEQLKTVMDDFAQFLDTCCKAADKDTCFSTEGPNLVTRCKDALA

C[C@H](NC(=O)c1ccc(N=Nc2cc(CCNC(=O)CCCC[C@@H]3SC[C@@H]4NC(=O)N[C@@H]43)ccc2O)cc1)C(=O)N[C@@H](C)C(=O)NC(Cc1ccccc1)P(=O)(Oc1ccccc1)Oc1ccccc1 (stereo partly drawn) [MTS-I-49]
Chemical Cleavage, number of identified peptides [1, 5]: 0
On Bead Digestion, amino acid sequence coverage ([1]; on bead digestion): 2 (2%)
On Bead Digestion, number of identified peptides ([1]; on bead digestion): 2 (2%)
Chemical Cleavage, number of identified peptides [2, 5]: 0
On Bead Digestion, amino acid sequence coverage ([2]; on bead digestion): 6%
On Bead Digestion, number of identified peptides ([2]; on bead digestion): 2
Chemical Cleavage, number of identified peptides [3, 5]: 0
On Bead Digestion, amino acid sequence coverage ([3]; on bead digestion): 10%
On Bead Digestion, number of identified peptides ([3]; on bead digestion): 2
Chemical Cleavage, number of identified peptides (hemoglobin alpha 1; [5]): 0
On Bead Digestion, amino acid sequence coverage (hemoglobin alpha 1; on bead digestion): 25%
On Bead Digestion, number of identified peptides (hemoglobin alpha 1; on bead digestion): 3
Chemical Cleavage, number of identified peptides [4, 5]: 0
On Bead Digestion, amino acid sequence coverage ([4]; on bead digestion): 34%
On Bead Digestion, number of identified peptides ([4]; on bead digestion): 3
Chemical Cleavage, number of identified peptides (carbonmonoxy hemoglobin; [5]): 0
On Bead Digestion, amino acid sequence coverage (carbonmonoxy hemoglobin; on bead digestion): 68%
On Bead Digestion, number of identified peptides (carbonmonoxy hemoglobin; on bead digestion): 7
Chemical Cleavage, number of identified peptides (albumin 1; [5]): 0
On Bead Digestion, amino acid sequence coverage (albumin 1; on bead digestion): 6%
On Bead Digestion, number of identified peptides (albumin 1; on bead digestion): 2
